Where a name gives a salt, the structure may show the parent alone.
Tests used:
Adrenergic β2 = target: T1, Adrenergic β2 (Homo sapiens, UniProt P07550); test: Adrenergic β2 mediated cAMP production in H292 cells (AlphaScreen cAMP detection); format: cell-based; design: key to β2 Int Act: fraction of formoterol maximum activity (formoterol = 1); conditions: for β2 Int Act: Intrinsic Activity as a fraction relative to the maximum activity determined for formoterol; for EC50: cAMP production, 60 minutes at room temperature, 300 μM rolipram, read-out: β2 pEC50 (converted)
T1 construct: Adherent H292 cells were removed from tissue culture flasks; endogenous in cells; host or cells: H292 cells
Procedure: Adrenergic β2 Mediated cAMP Production
H292 cells were grown in 225 cm2 flasks incubator at 37° C., 5% CO2 in RPMI medium containing, 10% (v/v) FBS (foetal bovine serum) and 2 mM L-glutamine.
Adherent H292 cells were removed from tissue culture flasks by treatment with Accutase™ cell detachment solution for 15 minutes. Flasks were incubated for 15 minutes in a humidified incubator at 37° C., 5% CO2. Detached cells were re-suspended in RPMI media (containing 10% (v/v) FBS and 2 mM L-glutamine) at 1×10^6 cells per mL. 10000 cells in 100 μL were added to each well of a tissue-culture-treated 96-well plate and the cells incubated overnight in a humidified incubator at 37° C., 5% CO2. The culture media was removed and cells were washed twice with 100 μL assay buffer and replaced with 50 μL assay buffer (HBSS solution containing 10 mM HEPES pH7.4 and 5 mM glucose). Cells were rested at room temperature for 20 minutes after which time 25 μL of rolipram (1.2 mM made up in assay buffer containing 2.4% (v/v) dimethylsulphoxide) was added. Cells were incubated with rolipram for 10 minutes after which time test compounds were added and the cells were incubated for 60 minutes at room temperature. The final rolipram concentration in the assay was 300 μM and final vehicle concentration was 1.6% (v/v) dimethylsulphoxide. The reaction was stopped by removing supernatants, washing once with 100 μL assay buffer and replacing with 50 μL lysis buffer. The cell monolayer was frozen at −80° C. for 30 minutes (or overnight).
AlphaScreen™ cAMP Detection
The concentration of cAMP (cyclic adenosine monophosphate) in the cell lysate was determined using AlphaScreen™ methodology. The frozen cell plate was thawed for 20 minutes on a plate shaker then 10 μL of the cell lysate was transferred to a 96-well white plate. 40 μL of mixed AlphaScreen™ detection beads pre-incubated with biotinylated cAMP, was added to each well and the plate incubated at room temperature for 10 hours in the dark. The AlphaScreen™ signal was measured using an EnVision spectrophotometer (Perkin-Elmer Inc.) with the recommended manufacturer's settings. cAMP concentrations were determined by reference to a calibration curve determined in the same experiment using standard cAMP concentrations. Concentration response curves for agonists were constructed and data was fitted to a four parameter logistic equation to determine both the pEC50 and Intrinsic Activity. Intrinsic Activity was expressed as a fraction relative to the maximum activity determined for formoterol in each experiment.

[1] = target: T2, recombinant human α1D receptor (Homo sapiens, UniProt P25100); test: Adrenergic α1D selectivity assay, [3H]-prazosin binding to membranes; conditions: inhibition of [3H]-prazosin binding, HEK cell membranes, read-out: α1 bind pIC50 (converted)
T2 construct: expressed in transfected cells; host or cells: human embryonic kidney 293 cells (HEK93 [sic]), membranes
T2 sequence (P25100 1-572): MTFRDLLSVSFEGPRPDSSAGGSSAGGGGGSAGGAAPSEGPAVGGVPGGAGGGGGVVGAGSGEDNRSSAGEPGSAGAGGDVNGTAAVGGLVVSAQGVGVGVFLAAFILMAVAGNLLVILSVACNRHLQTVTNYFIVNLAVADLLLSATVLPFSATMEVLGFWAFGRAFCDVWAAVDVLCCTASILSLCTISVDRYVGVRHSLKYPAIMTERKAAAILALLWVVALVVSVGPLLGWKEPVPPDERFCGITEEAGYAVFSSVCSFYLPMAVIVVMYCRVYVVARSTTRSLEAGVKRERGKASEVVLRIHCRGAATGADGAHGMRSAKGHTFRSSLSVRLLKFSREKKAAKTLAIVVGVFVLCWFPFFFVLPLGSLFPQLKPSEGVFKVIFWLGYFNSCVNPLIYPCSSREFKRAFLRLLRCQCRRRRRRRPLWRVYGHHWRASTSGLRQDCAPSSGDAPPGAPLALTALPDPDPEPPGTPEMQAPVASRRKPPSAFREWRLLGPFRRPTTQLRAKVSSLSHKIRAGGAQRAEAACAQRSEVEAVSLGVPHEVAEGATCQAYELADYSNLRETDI
Procedure: Membranes were prepared from human embryonic kidney 293 ([…]) cells expressing recombinant human α1D receptor. These were diluted in Assay Buffer (50 mM HEPES, 1 mM EDTA, pH 7.4) to provide a final concentration of membranes that gave a clear window between maximum and minimum specific binding.
Assays were performed in U-bottomed 96-well polypropylene plates. 10 μL [^3H]-prazosin (0.3 nM final concentration) and […] of test compound (10× final concentration) were added to each test well. For each assay plate 8 replicates were obtained for [^3H]-prazosin binding in the presence of 10 μL vehicle (10% (v/v) DMSO in Assay Buffer; defining maximum binding) or 10 μL BMY7378 (10 μM final concentration; defining non-specific binding (NSB)). Membranes were then added to achieve a final volume of 100 μL. The plates were incubated for 2 hours at room temperature and then filtered onto PEI coated GF/B filter plates, pre-soaked for 1 hour in Assay Buffer, using a 96-well plate Tomtec cell harvester. Five washes with 250 μL wash buffer (50 mM HEPES, 1 mM EDTA, pH 7.4) were performed at 4° C. to remove unbound radioactivity. The plates were dried then sealed from underneath using Packard plate sealers and MicroScint-O (50 μL) was added to each well. The plates were sealed (TopSeal A) and filter-bound radioactivity was measured with a scintillation counter (TopCount, Packard BioScience) using a 3-minute counting protocol.
(§1) Total specific binding (B0) was determined by subtracting the mean NSB from the mean maximum binding. NSB values were also subtracted from values from all other wells. […] Data was fitted to a four parameter logistic equation to determine the compound potency, which was expressed as pIC50 (negative log molar concentration inducing 50% inhibition of [^3H]-prazosin binding).

[2] = target: T3, recombinant human Dopamine Subtype D2s receptors (Homo sapiens, UniProt P14416); test: Dopamine D2 selectivity assay, [3H]-spiperone binding to membranes; conditions: inhibition of [3H]-spiperone binding, read-out: D2 bind pIC50 (converted)
T3 construct: purchased Perkin Elmer
Procedure: Membranes containing recombinant human Dopamine Subtype D2s receptors were obtained from Perkin Elmer. These were diluted in Assay Buffer (50 mM HEPES, 1 mM EDTA, 120 mM NaCl, 0.1% gelatin, pH 7.4) to provide a final concentration of membranes that gave a clear window between maximum and minimum specific binding.
Assays were performed in U-bottomed 96-well polypropylene plates. 30 μL [^3H]-spiperone (0.16 nM final concentration) and 30 μL of test compound (10× final concentration) were added to each test well. For each assay plate 8 replicates were obtained for [^3H]-spiperone binding in the presence of 30 μL vehicle (10% (v/v) DMSO in Assay Buffer; defining maximum binding) or 30 μL Haloperidol (10 μM final concentration; defining non-specific binding (NSB)). Membranes were then added to achieve a final volume of 300 μL. The plates were incubated for 2 hours at room temperature and then filtered onto PEI coated GF/B filter plates, pre-soaked for 1 hour in Assay Buffer, using a 96-well plate Tomtec cell harvester. Five washes with 250 μL wash buffer (50 mM HEPES, 1 mM EDTA, 120 mM NaCl, pH 7.4) were performed at 4° C. to remove unbound radioactivity. The plates were dried then sealed from underneath using Packard plate sealers and MicroScint-0 (50 μL) was added to each well. The plates were sealed (TopSeal A) and filter-bound radioactivity was measured with a scintillation counter (TopCount, Packard BioScience) using a 3-minute counting protocol.
as §1, with “[^3H]-spiperone” for “[^3H]-prazosin”

T3 sequence (P14416 1-414 isoform P14416-2): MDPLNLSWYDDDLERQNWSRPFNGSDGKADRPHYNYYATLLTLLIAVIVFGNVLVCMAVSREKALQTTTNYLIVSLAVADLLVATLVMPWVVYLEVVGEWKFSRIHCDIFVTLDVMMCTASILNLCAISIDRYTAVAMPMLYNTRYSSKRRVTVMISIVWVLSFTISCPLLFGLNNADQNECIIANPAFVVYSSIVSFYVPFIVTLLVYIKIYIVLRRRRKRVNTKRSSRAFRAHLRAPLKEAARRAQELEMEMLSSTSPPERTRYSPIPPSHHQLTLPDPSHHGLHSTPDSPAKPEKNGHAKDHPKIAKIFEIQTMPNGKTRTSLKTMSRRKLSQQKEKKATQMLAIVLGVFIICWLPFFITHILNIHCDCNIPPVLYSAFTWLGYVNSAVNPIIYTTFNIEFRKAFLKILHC
T1 sequence (P07550 whole entry): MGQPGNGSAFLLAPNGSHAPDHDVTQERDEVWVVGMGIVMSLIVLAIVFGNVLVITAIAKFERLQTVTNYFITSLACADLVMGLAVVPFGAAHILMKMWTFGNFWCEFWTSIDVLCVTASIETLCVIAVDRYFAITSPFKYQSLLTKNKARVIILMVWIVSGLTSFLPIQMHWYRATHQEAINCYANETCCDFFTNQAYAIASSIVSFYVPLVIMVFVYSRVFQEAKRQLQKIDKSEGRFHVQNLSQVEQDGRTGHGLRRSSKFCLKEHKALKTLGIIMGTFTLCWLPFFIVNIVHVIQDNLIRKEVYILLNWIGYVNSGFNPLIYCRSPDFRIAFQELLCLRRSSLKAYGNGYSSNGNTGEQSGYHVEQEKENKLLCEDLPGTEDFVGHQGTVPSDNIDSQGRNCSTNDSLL

| Compound | β2 Int Act (Adrenergic β2) | EC50 (Adrenergic β2) [nM] | IC50 [1] [nM] | IC50 [2] [nM] |
| --- | --- | --- | --- | --- |
| CCCCN(CCNCCc1ccc(O)c2[nH]c(=O)ccc12)C(=O)CCOCCc1ccccc1 [Example 1, N-Butyl-N-(2-(2-(8-hydroxy-2-oxo-1,2-dihydroquinolin-5-yl)ethylamino)ethyl)-3-phenethoxypropanamide hydrochloride] | 0.9 | 398 |  |  |
| O=C(CCNCCc1cccc(F)c1)N(CCNCCc1ccc(O)c2[nH]c(=O)ccc12)C1CCCCCC1 [Example 5, N-Cycloheptyl-3-(3-fluorophenethylamino)-N-(2-(2-(8-hydroxy-2-oxo-1,2-dihydroquinolin-5-yl)ethylamino)ethyl)propanamide bis(trifluoroacetate)] | 0.82 | 7.94 | 158 | 501 |
| O=C(CCNCCc1ccc(F)cc1)N(CCNCCc1ccc(O)c2[nH]c(=O)ccc12)C1CCCCCC1 [Example 6, N-Cycloheptyl-3-(4-fluorophenethylamino)-N-(2-(2-(8-hydroxy-2-oxo-1,2-dihydroquinolin-5-yl)ethylamino)ethyl)propanamide bis(trifluoroacetate)] | 0.65 | 31.6 | 50.1 | 251 |
| O=C(CCNCCc1ccccc1)N(CCNCCc1ccc(O)c2[nH]c(=O)ccc12)C1CCCCCC1 [Example 7, N-Cycloheptyl-N-(2-(2-(8-hydroxy-2-oxo-1,2-dihydroquinolin-5-yl)ethylamino)ethyl)-3-(phenethylamino)propanamide bis(trifluoroacetate)] | 0.76 | 10 | 126 | 316 |
| Cc1cccc(CCNCCC(=O)N(CCNCCc2ccc(O)c3[nH]c(=O)ccc23)C2CCCCCC2)c1 [Example 8, N-Cycloheptyl-N-(2-(2-(8-hydroxy-2-oxo-1,2-dihydroquinolin-5-yl)ethylamino)ethyl)-3-(3-methylphenethylamino)propanamide bis(trifluoroacetate)] | 0.79 | 6.31 | 100 | 398 |
| C[C@H](CNCCC(=O)N(CCNCCc1ccc(O)c2[nH]c(=O)ccc12)C1CCCCCC1)c1ccccc1 [Example 9, (S)—N-Cycloheptyl-N-(2-(2-(8-hydroxy-2-oxo-1,2-dihydroquinolin-5-yl)ethylamino)ethyl)-3-(2-phenylpropylamino)propanamide bis(trifluoroacetate)] | 0.91 | 39.8 |  |  |
| O=C(CCNCCc1cccc(-c2ccccc2)c1)N(CCNCCc1ccc(O)c2[nH]c(=O)ccc12)C1CCCCCC1 [Example 12, 3-(2-(Biphenyl-3-yl)ethylamino)-N-cycloheptyl-N-(2-(2-(8-hydroxy-2-oxo-1,2-dihydroquinolin-5-yl)ethylamino)ethyl)propanamide bis(trifluoroacetate)] | 0.67 | 50.1 | 316 | 126 |
| O=C(CCNCCc1cccc(F)c1)N(CCNCCc1ccc(O)c2[nH]c(=O)ccc12)C1CCCCC1 [Example 19, N-Cyclohexyl-3-(3-fluorophenethylamino)-N-(2-(2-(8-hydroxy-2-oxo-1,2-dihydroquinolin-5-yl)ethylamino)ethyl)propanamide] | 0.87 | 10 | 200 | 1260 |
| O=C1Cc2c(CCNCCN(C(=O)CCNCCc3cccc(F)c3)C3CCCCC3)ccc(O)c2N1 [Example 20, N-Cyclohexyl-3-(3-fluorophenethylamino)-N-(2-(2-(7-hydroxy-2-oxoindolin-4-yl)ethylamino)ethyl)propanamide dihydrobromide] | 0.78 | 7.94 | 158 | 398 |
| O=C1COc2c(CCNCCN(C(=O)CCNCCc3ccccc3Cl)C3CCCCC3)ccc(O)c2N1 [Example 28, 3-(2-Chlorophenethylamino)-N-cyclohexyl-N-(2-(2-(5-hydroxy-3-oxo-3,4-dihydro-2H-benzo[b][1,4]oxazin-8-yl)ethylamino)ethyl)propanamide bis(trifluoroacetate)] | 0.86 | 2.51 | 39.8 | 79.4 |
| O=C(CCOCCc1cc(F)cc(F)c1)N(CCNCCc1ccc(O)c2[nH]c(=O)ccc12)C1CCCCC1 [Example 78, N-Cyclohexyl-3-(3,5-difluorophenethoxy)-N-(2-(2-(8-hydroxy-2-oxo-1,2-dihydroquinolin-5-yl)ethylamino)ethyl)propanamide trifluoroacetate] | 1.01 | 20 | 794 |  |
